Earlier results in the CATMoS acute toxicity set (Mansouri et al. 2021).
Several values for one entry are separate records, joined by “and”; a condition that tells them apart may be missing. Equal values may be shown once.

Assay: rat acute oral toxicity
Conditions: in vivo

SMILES | LD50
CC(C)(C)CC(C)(C)c1ccc(OCCOS(=O)(=O)O)cc1 | 27000 mg/kg
Cc1ccc2sc(C)nc2c1 | 957 mg/kg
Nc1ccc(C(=O)c2ccccc2)c(C(=O)O)c1 | 5400 mg/kg
O=C1OC(=O)C2CC=CCC12 (stereo unspecified) | 5410 mg/kg
C=CCC1=C(C)[C@H](OC(=O)[C@H]2[C@H](C=C(C)C)C2(C)C)CC1=O (relative stereo) | 1320 mg/kg
COC(=O)/C=C(\C)OP(=O)(OC)OC | 3 mg/kg
CC1NC(=O)c2cc(N)ccc2O1 (stereo unspecified) | 1420 mg/kg
Cc1cc(=O)[nH]c(=S)[nH]1 | 1500 mg/kg
O[C@@H](c1cc(C(F)(F)F)nc2c(C(F)(F)F)cccc12)[C@H]1CCCCN1 | 880 mg/kg
CCCCCCCCCCO | 4720 mg/kg
Clc1ccc(CCC(Cn2ccnc2)Sc2c(Cl)cccc2Cl)cc1 (stereo unspecified) | 1720 mg/kg
CC(O)CN(C)c1ccc(NN)nn1 (stereo unspecified) | 1230 mg/kg
COP(=S)(NC(C)C)Oc1ccc(C)cc1[N+](=O)[O-] (stereo unspecified) | 309 mg/kg
CC(=O)C=Cc1ccc2c(c1)OCO2 | 4000 mg/kg
C1=CCC=C1 | 113 mg/kg
Cc1ccc(N=c2sccn2C)c(C)c1 | 725 mg/kg
CC1(C)S[C@@H]2[C@H](NC(=O)Cc3ccccc3)C(=O)N2[C@H]1C(=O)O | 8900 mg/kg and 8000 mg/kg and 6920 mg/kg
NC(=O)NO | 5760 mg/kg
CS(=O)C(C)(C)CO (stereo unspecified) | 11300 mg/kg
CCOP(=S)(OCC)SC1OCCOC1SP(=S)(OCC)OCC (stereo unspecified) | 20 mg/kg
CC(CC(c1ccccc1)c1ccccc1)NC(C)(C)C (stereo unspecified) | 465 mg/kg
O=S1(=O)OCC2C(CO1)C1(Cl)C(Cl)=C(Cl)C2(Cl)C1(Cl)Cl (stereo unspecified) | 18 mg/kg
Cc1c(-c2c(C)c(N)c3c(C(C)C)c(O)c(O)c(C=O)c3c2O)c(O)c2c(C=O)c(O)c(O)c(C(C)C)c2c1N | 3270 mg/kg
Cc1ccc(C)c(O)c1 | 444 mg/kg
O=C1N(Cc2ccccc2)C2C[S+]3CCCC3C2N1Cc1ccccc1 (stereo unspecified) | 2490 mg/kg
CCC(=O)OC(CC)(c1ccccc1)C1CCN(C)C1 (stereo unspecified) | 460 mg/kg

SMILES | LD50
CC[n+]1c(C=C2Sc3ccccc3N2C)ccc2ccccc21 | 2240 mg/kg
COC(=O)c1ccccc1N=NN(C)C | 13 mg/kg
CCOC(=O)C1=CN(C)C2CCCC(C)N2C1=O (stereo unspecified) | 378 mg/kg
CCOC(=O)Nc1cccc2c1CN(C)CC2c1ccc(Cl)cc1 (stereo unspecified) | 665 mg/kg
CN(C)CC(=O)N/N=C/c1c(Cl)nc2sccn12 | 1500 mg/kg
N#Cc1ccc2c(c1)N(CCCN1CCC(O)CC1)c1ccccc1S2 | 395 mg/kg
CS(=O)(=O)OCCCN(CCCOS(C)(=O)=O)c1ccccc1 | 38 mg/kg
c1cc2c(c(NC3=NCCN3)c1)CCCC2 | 190 mg/kg
CN1CCC(OC(=O)C2CCc3cc(C4CCCCC4)ccc32)CC1 (stereo unspecified) | 572 mg/kg
Cc1ccc(N=CN(C)SN(C)C=Nc2ccc(C)cc2C)c(C)c1 | 300 mg/kg
CCCCc1ccc(O)c(C(=O)Nc2cccc(C(F)(F)F)c2)c1 | 2500 mg/kg
CCCCCCCCOC(CBr)c1ccc(C2CCCC2)cc1 (stereo unspecified) | 250 mg/kg
O=C(O)c1cc(N=Nc2ccc(-c3ccc(N=Nc4c(O)ccc(/N=N/c5cc(S(=O)(=O)O)ccc5O)c4O)cc3)cc2)ccc1O | 12100 mg/kg
CCCCOC(=O)[C@@H](C)Oc1ccc(Oc2ccc(C(F)(F)F)cn2)cc1 | 2710 mg/kg
CN(C)c1ccc(SC#N)cc1 | 500 mg/kg
C=CCOC(=O)CC(SP(=S)(OC)OC)C(=O)OCC(C)SP(=S)(OC)OC (stereo unspecified) | 762 mg/kg
CN(C)CCC=C1c2ccccc2CCc2ccccc21 | 320 mg/kg
N#Cc1ccccc1Cl | 396 mg/kg
OCCN1CC1 | 74 mg/kg
CC1(C)Cc2cccc(OC(=O)NCSc3ccc(Br)cc3)c2O1 | 25 mg/kg
CN1CCN(C2=Cc3ccccc3Oc3ccc(Cl)cc32)CC1 | 231 mg/kg
CCCSP(=O)(OCC)Oc1cnn(-c2ccc(Cl)cc2)c1 (stereo unspecified) | 237 mg/kg
COc1nc(C)nc(NC(=O)NS(=O)(=O)c2ccccc2Cl)n1 | 9370 mg/kg
CCNC(=S)OC(C)C | 568 mg/kg
Cn1c(=O)c2c(ncn2CC2SCCS2)n(C)c1=O | 1840 mg/kg
CC1CSC(c2ccccc2OC(=O)N(C)C)S1 (stereo unspecified) | 140 mg/kg

SMILES | LD50
O=S(=O)(O)c1ccccc1 | 2050 mg/kg
Clc1cc2c(c(Cl)c1Cl)Oc1cc(Cl)c(Cl)c(Cl)c1O2 | 0.887 mg/kg
CCCCCCCCOC(=O)/C=C\C(=O)OCCCCCCCC | 14200 mg/kg
C=CC(=O)OCCN(C)C | 455 mg/kg
CC(C)CC(C)OC(=O)CC(C(=O)OC(C)CC(C)C)S(=O)(=O)O (stereo unspecified) | 1750 mg/kg
O=C(O)CCC(=O)c1ccc2oc3ccccc3c2c1 | 1280 mg/kg
O=C(O)CS(=O)(=O)O | 3160 mg/kg
CCn1cc(C(=O)O)c(=O)c2cnc(N3CCNCC3)nc21 | 16000 mg/kg
CCCCCCCCS(=O)CCCCl (stereo unspecified) | 5660 mg/kg
CCCCOCC(O)COc1ccccc1 (stereo unspecified) | 2370 mg/kg
C=CCN(CC=C)c1c(C)cc(OC(=O)NC)cc1C | 89 mg/kg
CNCCC=C1c2ccccc2CCc2ccccc21 | 502 mg/kg and 405 mg/kg
c1coc(COCc2ccco2)c1 | 210 mg/kg
CCC(C)(CC)c1cc(N)on1 | 144 mg/kg
CC(C)(O)C(C)(O)c1ccc(Cl)cc1 (stereo unspecified) | 832 mg/kg
COc1cc(O)c(C(=O)c2ccccc2)cc1S(=O)(=O)O | 3530 mg/kg
CN(C)CCCN1c2ccccc2CCc2ccc(Cl)cc21 | 914 mg/kg and 613 mg/kg
CC(Cc1ccc2c(c1)OCO2)NCC(O)c1ccc(O)c(O)c1 (stereo unspecified) | 865 mg/kg
COc1cccc(C=Nc2c(C)n(C)n(-c3ccccc3)c2=O)c1 | 5600 mg/kg
NS(=O)(=O)c1cc2c(cc1Cl)CN(C1CCCCC1)C2=O | 6000 mg/kg
O=C(c1ccccc1)c1cccc(NS(=O)(=O)C(F)F)c1 | 750 mg/kg and 450 mg/kg
CN(CCO)c1ccccc1 | 2830 mg/kg
CN(C)CCOc1ccc(/C(=C(/CCCl)c2ccccc2)c2ccccc2)cc1 | 1700 mg/kg and 3000 mg/kg
C=CC(=O)OCCCCCCCCCC | 6460 mg/kg
CCCCCCOCCOC(=O)CCCCC(=O)OCCOCCCCCC | 4290 mg/kg
O=S1(=O)CCCO1 | 100 mg/kg

SMILES | LD50
C#CCN(C)CCCOc1ccc(Cl)cc1Cl | 210 mg/kg
CCOP(=S)(OCC)SCS(=O)(=O)CC | 1.2 mg/kg
Nc1cccc2c(Cl)ccc(Cl)c12 | 3490 mg/kg
CCCCn1c2ccccc2c2cc(N)ccc21 | 946 mg/kg
CCN1CCC(=C(c2ccccc2)c2ccccc2)C1 | 166 mg/kg and 450 mg/kg
CC(=O)C(N=Nc1ccc(-c2ccc(N=NC(C(C)=O)C(=O)Nc3ccc(C)cc3)c(Cl)c2)cc1Cl)C(=O)Nc1ccc(C)cc1 (stereo unspecified) | 2230 mg/kg
N#CC(=Cc1ccc(Cl)cc1Cl)C(=O)O | 50 mg/kg
Clc1ccc(CO/N=C(\Cn2ccnc2)c2ccc(Cl)cc2Cl)c(Cl)c1 | 2460 mg/kg
CC(C)=CCC(=O)c1ccoc1 | 25 mg/kg
CCOC(=O)c1c(C)cc2c(CO)n[nH]c(=O)c2c1C | 1750 mg/kg
O=c1[nH]c(=O)n([C@H]2C[C@H](O)[C@@H](CO)O2)cc1F | 215 mg/kg
N[C@@H]1C[C@H]1c1ccc(F)c(F)c1 | 50 mg/kg
CN1CCC(=C2c3ccccc3CCc3sccc32)CC1 | 410 mg/kg
O=C1NC(=O)C2(c3ccc(Cl)cc3)CC12 (stereo unspecified) | 1550 mg/kg
Cc1ncoc1C#N | 735 mg/kg
Cc1ccc(S(=O)(=O)OCCCl)cc1 | 498 mg/kg
CCCC(C)(Oc1ccc(Cc2ccc(Cl)cc2)cc1)C(=O)OCc1cccnc1 (stereo unspecified) | 10000 mg/kg
O=C(NC(O)C(Cl)(Cl)Cl)NC(O)C(Cl)(Cl)Cl (stereo unspecified) | 6400 mg/kg
N#CN=c1ccccn1Cc1ccccc1Cl | 500 mg/kg
CCOC(=O)NS(=O)(=O)c1ccc(Cl)cc1 | 380 mg/kg
COc1cc(C(=O)N(C)C)nn1-c1cccc(Cl)c1 | 790 mg/kg
CCOP(=S)(OCC)Oc1ccc(=O)n(-c2ccccc2)n1 | 424 mg/kg
ClC(Cl)(Cl)CC1CO1 (stereo unspecified) | 1500 mg/kg
